The target in this experiment is T1, mushroom tyrosinase.
T1 construct: gene PPO3
Put plainly: dopachrome absorbance at […] nm. The experiment is classed as biochemical. To be noted: L-DOPA substrate (1.25 mM solution), 20 mM phosphate pH 6.8, 37 °C, 30 min.

Consider 1 compound from paper PMC8231118, “Evaluating the Antioxidants, Whitening and Antiaging Properties of Rice Protein Hydrolysates” (Molecules, 2021).

In brackets after ≈: the same amount, converted by molar mass.

A word on the IC50: it is the concentration that gives 50% inhibition. A low value points to higher potency.

For the compound `O=C1O[C@H]([C@@H](O)CO)C(O)=C1O` [ascorbic acid], the concentration for half-maximal inhibition (IC50) came out at 98 mg/L (≈ 556 µM).
